The source made the active and inactive calls. The calls are words filed in the database; no cut-off is given here.
Tests used:
[1] = test system: HEL; experiment: Antitumor activity against HEL cells xenografted in Balb/c nude mouse assessed as tumor growth inhibition at 25 mg/kg, ip administered once daily for 14 consecutive days relative to control; assay type: functional, Homo sapiens; details: 336 h, time 14 day, read-out: TGI
[2] = test system: HEL; experiment: Cytotoxicity against HEL cells assessed as inhibition of cell growth incubated under normoxic condition in presence of 3-cyclopropyl-1-(3-{5-[(morpholin-4-yl)methyl]-1H-1,3-benzodiazol-2-yl}-1H-pyrazol-4-yl)urea; assay type: functional, cell-based; details: Homo sapiens
[3] = test system: HEL; experiment: Cytotoxicity against HEL cells assessed as inhibition of cell growth; assay type: functional, cell-based; details: Homo sapiens
[4] = test system: HEL; experiment: Cytotoxicity against HEL cells assessed as inhibition of cell growth irradiated with 450 nm light and incubated in presence of N-tert-butyl-3-[[5-methyl-2-(4-piperazin-1-ylanilino)pyrimidin-4-yl]amino]benzenesulfonamide; assay type: functional, cell-based; details: Homo sapiens, light or radiation study
[5] = test system: HEL; experiment: Antitumor activity against HEL cells xenografted in Balb/c nude mouse assessed as induction of apoptosis in tumor at 25 mg/kg, ip administered once daily for 14 consecutive days in presence of N-tert-butyl-3-[[5-methyl-2-(4-piperazin-1-ylanilino)pyrimidin-4-yl]amino]benzenesulfonamide by TUNEL assay relative to control; assay type: functional, organism-based; details: Homo sapiens, time 14.0 day
[6] = test system: HEL; experiment: Antitumor activity against HEL cells xenografted in Balb/c nude mouse assessed as tumor growth inhibition at 25 mg/kg, ip administered once daily for 14 consecutive days in presence of N-tert-butyl-3-[[5-methyl-2-(4-piperazin-1-ylanilino)pyrimidin-4-yl]amino]benzenesulfonamide relative to control; assay type: functional, Homo sapiens; details: 336 h, time 14 day, read-out: TGI
[7] = test system: HEL; experiment: Cytotoxicity against HEL cells assessed as inhibition of cell growth incubated under dark condition in presence of N-tert-butyl-3-[[5-methyl-2-(4-piperazin-1-ylanilino)pyrimidin-4-yl]amino]benzenesulfonamide; assay type: functional, cell-based; details: Homo sapiens
[8] = test system: HEL; experiment: Cytotoxicity against HEL cells assessed as inhibition of cell growth incubated under hypoxic condition in presence of N-tert-butyl-3-[[5-methyl-2-(4-piperazin-1-ylanilino)pyrimidin-4-yl]amino]benzenesulfonamide; assay type: functional, cell-based; details: Homo sapiens
[9] = test system: HEL; experiment: Cytotoxicity against HEL cells assessed as inhibition of cell growth incubated under normoxic condition in presence of N-tert-butyl-3-[[5-methyl-2-(4-piperazin-1-ylanilino)pyrimidin-4-yl]amino]benzenesulfonamide; assay type: functional, cell-based; details: Homo sapiens
[10] = test system: HEL; experiment: Inhibition of JAK/STAT phosphorylation in HEL cells assessed as reduction in STAT5 phosphorylation at 1 uM incubated under dark condition by Western blot analysis relative to control; assay type: cell-based; details: Homo sapiens
[11] = Cytotoxicity against HUVEC cells assessed as inhibition of cell growth; assay type: toxicity, cell-based; details: human
[12] = Prodrug release in HEL cells assessed as 3-cyclopropyl-1-(3-{5-[(morpholin-4-yl)methyl]-1H-1,3-benzodiazol-2-yl}-1H-pyrazol-4-yl)urea formation at 1 uM illuminated with 405 nm light for 10 mins and measured after 6 hrs by LC-MS/MS analysis; assay type: ADME, cell-based; details: human, 6.167 h, time 370 min
[13] = test system: HEL; experiment: Inhibition of JAK/STAT phosphorylation in HEL cells assessed as reduction in STAT3 phosphorylation at 1 uM irradiated with 450 nm light by Western blot analysis relative to control; assay type: cell-based; details: Homo sapiens
[14] = test system: HEL; experiment: Cytotoxicity against HEL cells assessed as inhibition of cell growth incubated under dark condition; assay type: functional, cell-based; details: Homo sapiens
[15] = Prodrug release in HEL cells assessed as N-tert-butyl-3-[[5-methyl-2-(4-piperazin-1-ylanilino)pyrimidin-4-yl]amino]benzenesulfonamide formation at 1 uM illuminated with 405 nm light for 10 mins and measured after 6 hrs by LC-MS/MS analysis; assay type: ADME, cell-based; details: human, 6.167 h, time 370 min
[16] = Prodrug release in HEL cells assessed as 3-cyclopropyl-1-(3-{5-[(morpholin-4-yl)methyl]-1H-1,3-benzodiazol-2-yl}-1H-pyrazol-4-yl)urea formation at 1 uM incubated under dark condition for 6 hrs by LC-MS/MS analysis; assay type: ADME, cell-based; details: human
[17] = test system: HEL; experiment: Inhibition of JAK/STAT phosphorylation in HEL cells assessed as reduction in STAT3 phosphorylation at 1 uM incubated under dark condition by Western blot analysis relative to control; assay type: cell-based; details: Homo sapiens
[18] = Prodrug release in HEL cells assessed as N-tert-butyl-3-[[5-methyl-2-(4-piperazin-1-ylanilino)pyrimidin-4-yl]amino]benzenesulfonamide formation at 1 uM incubated under dark condition for 6 hrs by LC-MS/MS analysis; assay type: ADME, cell-based; details: human
[19] = test system: HEL; experiment: Inhibition of JAK/STAT phosphorylation in HEL cells assessed as reduction in STAT5 phosphorylation at 1 uM irradiated with 450 nm light by Western blot analysis relative to control; assay type: cell-based; details: Homo sapiens
[20] = test system: HEL; experiment: Cytotoxicity against HEL cells assessed as inhibition of cell growth irradiated with 450 nm light; assay type: functional, cell-based; details: Homo sapiens, light or radiation study
[21] = Stability of compound in mouse plasma measured after 24 hrs; assay type: ADME, cell-free; details: read-out: Stability
[22] = Stability of compound in human plasma measured after 24 hrs; assay type: ADME, cell-free; details: read-out: Stability
[23] = Stability of compound in PBS measured after 24 hrs; assay type: physicochemical; details: PBS, read-out: Stability

O=C(Nc1c[nH]nc1-c1nc2ccc(CN3CCOCC3)cc2[nH]1)NC1CC1 [AT-9283]
inhibition in vivo at 25 mg/kg [1]: 85.9% | IC50 [2]: 650 nM | IC50 [3]: 1040 nM | IC50 [4]: 2180 nM | Activity [5]: Active | inhibition in vivo at 25 mg/kg [6]: 91.2% | IC50 [7]: 1410 nM | IC50 [8]: 1340 nM | IC50 [9]: 650 nM

CCN(CC)c1ccc2c(COC(=O)Oc3c(COC(=O)N4CCN(c5ccc(Nc6ncc(C)c(Nc7cccc(S(=O)(=O)NC(C)(C)C)c7)n6)cc5)CC4)cc(C)cc3COC(=O)n3cc(NC(=O)NC4CC4)c(-c4nc5cc(CN6CCOCC6)ccc5[nH]4)n3)cc(=O)oc2c1
inhibition [10]: inactive | IC50 [11]: > 200000 nM | Drug metabolism [12]: Metabolite_Detected | inhibition [13]: 100% | IC50 [14]: > 200000 nM | Drug metabolism [15]: Metabolite_Detected | Drug metabolism [16]: Metabolite_Notdetected | inhibition [17]: inactive | Drug metabolism [18]: Metabolite_Notdetected | inhibition [19]: 100% | IC50 [20]: 1810 nM | remaining at 24 h [21]: > 82.8% | remaining at 24 h [22]: > 78.3% | remaining at 24 h [23]: > 95.1%

C[C@@H]1CCN(C(=O)CC#N)C[C@@H]1N(C)c1ncnc2[nH]ccc12 [TOFACITINIB]
IC50 [3]: 3830 nM

N#CC[C@H](C1CCCC1)n1cc(-c2ncnc3[nH]ccc23)cn1 [RUXOLITINIB]
IC50 [3]: 7460 nM

Source: ChEMBL document CHEMBL5385890, “A JAK tyrosine kinase and pseudokinase Co-inhibition strategy combines enhanced potency and on-demand activation” (Eur J Med Chem, 2023)
